This note sets out measurements from patent US20030100548A1, “Arylpiperazines and their use as metallaproteinase inhibiting agents (mmp)” (priority 2000, published 2003).

Broadly, the melting point is the temperature of the solid-liquid transition. Molecule `O=S(=O)(CC(CS)Cc1ccccc1)N1CCN(c2ccc(F)cc2)CC1` (stereo not shown) [Example 1, N-(4-fluorophenyl)-N′-(2-benzyl-3-mercaptopropane-1-sulphonyl)-piperazine] gave a melting point of 73 °C.
